Drawing on PMC10175918 (Communications Biology, 2023), this text covers activation for five compounds.

Test in all cases: TGFα-shedding assay-based GPCR screening with chimeric Gα subunit proteins
Common to all, as to type: cell-based

The target of assay [1] is T1, 348 GPCRs (Homo sapiens, UniProt O15303).
T1 construct: expressed in transfected cells; host or cells: HEK293A
As to conditions: 10µM, Favipiravir 100μM.

The target of assay [2] is 348 GPCRs (Homo sapiens, UniProt P43220). Particulars: 10µM, Favipiravir 100μM.
For assay [3], the target named is T2, 348 GPCRs (Homo sapiens, UniProt Q6W5P4).
T2 construct: expressed in transfected cells; host or cells: HEK293A
T2 sequence (Q6W5P4 1-371): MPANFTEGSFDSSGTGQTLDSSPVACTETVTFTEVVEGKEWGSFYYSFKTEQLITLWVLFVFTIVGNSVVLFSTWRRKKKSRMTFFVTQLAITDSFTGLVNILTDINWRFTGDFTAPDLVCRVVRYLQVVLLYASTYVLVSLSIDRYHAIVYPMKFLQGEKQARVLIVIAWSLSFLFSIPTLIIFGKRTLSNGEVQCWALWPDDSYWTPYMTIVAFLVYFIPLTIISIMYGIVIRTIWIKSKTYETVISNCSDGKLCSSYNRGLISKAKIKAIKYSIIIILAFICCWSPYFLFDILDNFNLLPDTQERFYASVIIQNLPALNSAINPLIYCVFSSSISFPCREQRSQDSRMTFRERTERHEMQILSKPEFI
As to conditions: 10µM, Favipiravir 100μM.

The target in assay [4] is 348 GPCRs (Homo sapiens, UniProt Q96LA9). As to conditions: 10µM, Favipiravir 100μM.
In assay [5] the target is T3, 348 GPCRs (Homo sapiens, UniProt Q96PE1).
T3 sequence (Q96PE1 34-1338): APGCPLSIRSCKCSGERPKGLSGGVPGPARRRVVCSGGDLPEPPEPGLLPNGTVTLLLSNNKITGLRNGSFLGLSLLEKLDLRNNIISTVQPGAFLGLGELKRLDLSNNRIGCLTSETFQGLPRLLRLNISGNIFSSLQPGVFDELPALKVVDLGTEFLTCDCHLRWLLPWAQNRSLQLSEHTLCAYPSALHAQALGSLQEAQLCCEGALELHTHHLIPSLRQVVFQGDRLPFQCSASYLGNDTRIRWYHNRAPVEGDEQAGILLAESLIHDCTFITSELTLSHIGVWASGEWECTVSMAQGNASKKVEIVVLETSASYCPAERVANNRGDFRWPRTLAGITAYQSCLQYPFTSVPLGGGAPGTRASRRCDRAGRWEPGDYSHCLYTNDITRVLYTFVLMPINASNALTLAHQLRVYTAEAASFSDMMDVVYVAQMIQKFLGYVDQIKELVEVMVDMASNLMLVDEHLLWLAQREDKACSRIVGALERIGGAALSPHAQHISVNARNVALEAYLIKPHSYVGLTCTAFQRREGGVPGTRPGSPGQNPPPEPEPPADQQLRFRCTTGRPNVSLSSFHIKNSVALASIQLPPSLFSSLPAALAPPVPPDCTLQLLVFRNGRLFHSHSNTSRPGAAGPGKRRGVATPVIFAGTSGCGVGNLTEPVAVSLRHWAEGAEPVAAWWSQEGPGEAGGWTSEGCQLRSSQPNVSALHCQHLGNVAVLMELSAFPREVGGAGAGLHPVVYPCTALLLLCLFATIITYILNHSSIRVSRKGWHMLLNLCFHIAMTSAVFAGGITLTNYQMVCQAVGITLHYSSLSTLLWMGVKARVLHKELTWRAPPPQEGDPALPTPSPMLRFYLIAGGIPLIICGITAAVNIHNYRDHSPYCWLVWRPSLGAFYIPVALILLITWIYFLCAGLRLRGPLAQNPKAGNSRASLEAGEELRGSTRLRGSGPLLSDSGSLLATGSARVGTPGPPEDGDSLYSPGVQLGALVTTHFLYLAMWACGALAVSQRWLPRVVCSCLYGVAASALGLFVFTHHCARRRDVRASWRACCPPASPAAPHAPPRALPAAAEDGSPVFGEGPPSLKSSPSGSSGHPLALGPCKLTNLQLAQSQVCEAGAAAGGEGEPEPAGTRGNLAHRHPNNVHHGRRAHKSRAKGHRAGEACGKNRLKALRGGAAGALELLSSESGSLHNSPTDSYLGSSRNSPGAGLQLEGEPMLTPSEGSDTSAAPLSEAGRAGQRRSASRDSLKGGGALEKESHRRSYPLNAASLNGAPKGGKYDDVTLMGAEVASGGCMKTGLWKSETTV

The target of assay [6] is T4, 348 GPCRs (Homo sapiens, UniProt Q9GZQ4).
T4 construct: expressed in transfected cells; host or cells: HEK293A
As to conditions: 10µM, Favipiravir 100μM.

Assay [7] concerns the target T5, 348 GPCRs (Homo sapiens, UniProt Q9NYW0).
T5 construct: expressed in transfected cells; host or cells: HEK293A
T5 sequence (Q9NYW0 1-307): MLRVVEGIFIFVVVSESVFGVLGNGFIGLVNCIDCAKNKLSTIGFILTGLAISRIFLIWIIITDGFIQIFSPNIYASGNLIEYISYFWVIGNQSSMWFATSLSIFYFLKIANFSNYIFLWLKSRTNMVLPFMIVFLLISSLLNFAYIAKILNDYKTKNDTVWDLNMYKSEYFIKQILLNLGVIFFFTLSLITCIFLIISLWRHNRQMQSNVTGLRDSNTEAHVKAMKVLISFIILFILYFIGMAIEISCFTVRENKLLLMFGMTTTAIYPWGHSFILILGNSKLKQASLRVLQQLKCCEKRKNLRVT
Particulars: 10µM, Favipiravir 100μM.

Assay [8] deals with T6, 348 GPCRs (Homo sapiens, UniProt Q9P296).
T6 construct: expressed in transfected cells; host or cells: HEK293A
As to conditions: 10µM, Favipiravir 100μM.

Assay [9] addresses T7, 348 GPCRs (Homo sapiens, UniProt Q9UBS5).
T7 construct: expressed in transfected cells; host or cells: HEK293A
Particulars: 10µM, Favipiravir 100μM.

The mark [10] stands for this setting: GRM6 (glutamate receptor, metabotropic 6), read-out: % GPCR activation compared to TPA.
The mark [11] stands for this setting: GLP1R (glucagon-like peptide 1 receptor), read-out: % GPCR activation compared to TPA.
Setting [12] is: NPS (neuropeptide S receptor 1), read-out: % GPCR activation compared to TPA.
Setting [13] is: MRGPRX4 (MAS-related GPR, member X4), read-out: % GPCR activation compared to TPA.
Where [14] appears, read: MRGX4 (MAS-related GPR, member X4), read-out: % GPCR activation compared to TPA.
The mark [15] stands for this setting: NMUR2 (neuromedin U receptor 2), read-out: % GPCR activation compared to TPA.
[16] abbreviates: TAS2R10 (taste receptor, type 2, member 10), read-out: % GPCR activation compared to TPA.
[17] abbreviates: GPR77 (complement component 5a receptor 2 (C5AR2)), read-out: % GPCR activation compared to TPA.
The mark [18] stands for this setting: GABBR1 (gamma-aminobutyric acid (GABA) B receptor, 1), read-out: % GPCR activation compared to TPA.
Setting [19] is: read-out: % GPCR activation compared to TPA, GRM6 (glutamate receptor, metabotropic 6).
Setting [20] is: read-out: % GPCR activation compared to TPA, GLP1R (glucagon-like peptide 1 receptor).
The mark [21] stands for this setting: read-out: % GPCR activation compared to TPA, NPS (neuropeptide S receptor 1).
Setting [22] is: read-out: % GPCR activation compared to TPA, MRGPRX4 (MAS-related GPR, member X4).
Where [23] appears, read: read-out: % GPCR activation compared to TPA, MRGX4 (MAS-related GPR, member X4).
Where [24] appears, read: read-out: % GPCR activation compared to TPA, GPCR GPR124 (Adhesion G Protein-Coupled Receptor A2 (ADGRA2)).
Setting [25] is: read-out: % GPCR activation compared to TPA, NMUR2 (neuromedin U receptor 2).
The mark [26] stands for this setting: read-out: % GPCR activation compared to TPA, TAS2R10 (taste receptor, type 2, member 10).
The mark [27] stands for this setting: read-out: % GPCR activation compared to TPA, GPR77 (complement component 5a receptor 2 (C5AR2)).
Setting [28] is: read-out: % GPCR activation compared to TPA, GABBR1 (gamma-aminobutyric acid (GABA) B receptor, 1).
Where [29] appears, read: GPCR GPR124 (Adhesion G Protein-Coupled Receptor A2 (ADGRA2)), read-out: % GPCR activation compared to TPA.

SMILES strings stand for the structures. Like-named read-outs stand apart in the source and are kept apart here.

T1 sequence (O15303 25-877): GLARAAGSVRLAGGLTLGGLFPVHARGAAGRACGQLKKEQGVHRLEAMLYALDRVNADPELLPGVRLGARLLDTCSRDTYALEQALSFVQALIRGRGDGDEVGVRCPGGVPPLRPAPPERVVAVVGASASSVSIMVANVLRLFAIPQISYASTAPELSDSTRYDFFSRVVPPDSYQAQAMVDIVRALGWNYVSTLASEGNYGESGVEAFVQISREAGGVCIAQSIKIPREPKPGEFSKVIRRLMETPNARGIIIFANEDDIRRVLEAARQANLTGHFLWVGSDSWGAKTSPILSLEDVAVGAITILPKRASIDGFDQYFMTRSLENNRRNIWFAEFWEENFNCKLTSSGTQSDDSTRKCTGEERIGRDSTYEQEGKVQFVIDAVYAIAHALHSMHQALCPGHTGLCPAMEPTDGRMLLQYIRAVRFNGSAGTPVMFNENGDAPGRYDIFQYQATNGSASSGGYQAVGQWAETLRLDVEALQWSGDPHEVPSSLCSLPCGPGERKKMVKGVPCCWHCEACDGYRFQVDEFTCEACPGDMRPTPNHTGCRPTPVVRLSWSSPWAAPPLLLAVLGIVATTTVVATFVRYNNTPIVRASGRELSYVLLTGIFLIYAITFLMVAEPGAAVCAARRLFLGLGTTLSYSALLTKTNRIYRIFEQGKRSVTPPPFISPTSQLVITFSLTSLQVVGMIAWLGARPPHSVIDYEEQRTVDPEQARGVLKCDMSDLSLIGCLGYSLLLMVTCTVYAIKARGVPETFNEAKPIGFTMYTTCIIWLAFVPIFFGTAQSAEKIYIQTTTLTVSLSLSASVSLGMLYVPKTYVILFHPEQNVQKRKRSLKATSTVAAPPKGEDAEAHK
Sequence of 348 GPCRs (Homo sapiens, UniProt Q96LA9) (Q96LA9 whole entry): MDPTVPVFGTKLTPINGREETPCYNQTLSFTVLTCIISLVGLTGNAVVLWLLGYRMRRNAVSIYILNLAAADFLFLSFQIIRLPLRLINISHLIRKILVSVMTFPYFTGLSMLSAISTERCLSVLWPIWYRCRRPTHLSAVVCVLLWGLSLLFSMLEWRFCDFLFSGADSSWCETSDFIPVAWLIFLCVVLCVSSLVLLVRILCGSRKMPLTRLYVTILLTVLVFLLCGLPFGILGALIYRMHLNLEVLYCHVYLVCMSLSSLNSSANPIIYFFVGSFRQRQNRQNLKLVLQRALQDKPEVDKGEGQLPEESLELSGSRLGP
Sequence of 348 GPCRs (Homo sapiens, UniProt P43220) (P43220 24-463): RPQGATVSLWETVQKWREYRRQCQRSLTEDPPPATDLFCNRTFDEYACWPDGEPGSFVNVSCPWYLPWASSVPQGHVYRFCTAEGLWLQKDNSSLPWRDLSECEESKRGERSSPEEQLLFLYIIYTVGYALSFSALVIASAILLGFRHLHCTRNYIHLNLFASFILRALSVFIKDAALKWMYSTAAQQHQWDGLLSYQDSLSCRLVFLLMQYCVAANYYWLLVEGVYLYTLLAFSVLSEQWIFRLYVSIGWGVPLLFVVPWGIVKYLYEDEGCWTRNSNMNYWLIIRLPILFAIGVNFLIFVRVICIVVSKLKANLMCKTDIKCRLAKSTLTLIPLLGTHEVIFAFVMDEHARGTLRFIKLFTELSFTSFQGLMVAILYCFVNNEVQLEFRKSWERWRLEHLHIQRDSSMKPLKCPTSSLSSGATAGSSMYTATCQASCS
T4 sequence (Q9GZQ4 whole entry): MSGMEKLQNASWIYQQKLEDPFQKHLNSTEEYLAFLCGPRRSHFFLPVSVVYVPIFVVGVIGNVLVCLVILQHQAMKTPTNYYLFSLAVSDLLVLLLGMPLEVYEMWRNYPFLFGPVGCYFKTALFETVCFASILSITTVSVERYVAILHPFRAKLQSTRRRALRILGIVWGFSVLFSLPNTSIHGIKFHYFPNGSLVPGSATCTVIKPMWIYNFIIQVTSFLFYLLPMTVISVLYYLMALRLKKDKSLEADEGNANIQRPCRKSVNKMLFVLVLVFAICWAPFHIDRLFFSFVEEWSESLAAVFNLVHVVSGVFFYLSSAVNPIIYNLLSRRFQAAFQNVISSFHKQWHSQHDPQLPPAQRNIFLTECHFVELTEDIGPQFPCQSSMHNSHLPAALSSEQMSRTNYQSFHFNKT
T7 sequence (Q9UBS5 20-961): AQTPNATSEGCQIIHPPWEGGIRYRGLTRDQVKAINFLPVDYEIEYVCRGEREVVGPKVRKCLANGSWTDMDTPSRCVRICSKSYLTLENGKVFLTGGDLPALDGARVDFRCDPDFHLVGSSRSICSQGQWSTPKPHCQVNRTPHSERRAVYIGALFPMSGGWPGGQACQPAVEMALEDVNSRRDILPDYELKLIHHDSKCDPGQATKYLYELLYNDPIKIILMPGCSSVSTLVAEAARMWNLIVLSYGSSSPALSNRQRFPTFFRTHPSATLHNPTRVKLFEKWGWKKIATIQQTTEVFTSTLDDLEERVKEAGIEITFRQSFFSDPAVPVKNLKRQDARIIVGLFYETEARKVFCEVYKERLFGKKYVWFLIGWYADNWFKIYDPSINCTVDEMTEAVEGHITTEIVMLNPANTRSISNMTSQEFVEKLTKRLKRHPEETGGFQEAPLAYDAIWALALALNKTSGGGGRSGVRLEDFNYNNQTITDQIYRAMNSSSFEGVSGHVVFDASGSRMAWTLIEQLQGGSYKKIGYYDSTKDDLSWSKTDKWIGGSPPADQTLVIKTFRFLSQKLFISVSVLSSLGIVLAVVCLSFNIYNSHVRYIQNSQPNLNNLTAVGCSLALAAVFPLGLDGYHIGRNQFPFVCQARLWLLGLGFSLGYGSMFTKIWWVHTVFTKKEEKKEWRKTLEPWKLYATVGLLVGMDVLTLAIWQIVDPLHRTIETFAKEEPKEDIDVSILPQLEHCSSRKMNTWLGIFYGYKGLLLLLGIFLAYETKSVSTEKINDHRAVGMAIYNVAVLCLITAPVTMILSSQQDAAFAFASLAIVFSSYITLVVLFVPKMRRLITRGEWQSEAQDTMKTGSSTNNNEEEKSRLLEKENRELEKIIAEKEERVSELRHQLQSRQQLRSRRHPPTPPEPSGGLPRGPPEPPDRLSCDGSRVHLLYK
T6 sequence (Q9P296 whole entry): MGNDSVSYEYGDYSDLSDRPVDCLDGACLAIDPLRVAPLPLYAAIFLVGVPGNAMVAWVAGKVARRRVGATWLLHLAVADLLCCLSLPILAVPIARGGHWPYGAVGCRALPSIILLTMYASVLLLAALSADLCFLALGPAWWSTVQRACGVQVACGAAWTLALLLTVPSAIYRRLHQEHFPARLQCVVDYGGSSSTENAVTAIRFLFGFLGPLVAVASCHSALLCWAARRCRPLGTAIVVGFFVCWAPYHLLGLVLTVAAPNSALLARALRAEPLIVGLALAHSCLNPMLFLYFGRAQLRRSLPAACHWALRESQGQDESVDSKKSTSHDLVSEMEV

With `NC(=O)c1nc(F)cnc1O` [favipiravir, 6-fluoro-3-hydroxy-2-pyrazinecarboxamide], the activation at 10 µM was -0.482% at 348 GPCRs [1] (setting [10]), -2.54% on 348 GPCRs [2] (setting [11]), -0.693% at 348 GPCRs [3] (setting [12]) and -2.41% at 348 GPCRs [6] (setting [15]). Also, the activation at 100 µM was -1.47% at 348 GPCRs [4] (setting [13]); -11.1% at 348 GPCRs [4] (setting [14]); -1.17% on 348 GPCRs [5] (GPCR GPR124 (Adhesion G Protein-Coupled Receptor A2 (ADGRA2)), 100μM, read-out: % GPCR activation compared to TPA); 1.23% on 348 GPCRs [7] (setting [16]); 6.15% at 348 GPCRs [8] (setting [17]); -4.01% on 348 GPCRs [9] (setting [18]).

For `CC(C)OC(=O)[C@H](C)N[P@](=O)(OC[C@H]1O[C@@H](n2ccc(=O)[nH]c2=O)[C@](C)(F)[C@@H]1O)Oc1ccccc1` [sofosbuvir], the activation at 10 µM on 348 GPCRs [1] (setting [19]) is 2.66%; at 348 GPCRs [2] (setting [20]), -2.54%; at 348 GPCRs [3] (setting [21]), 0.112%; at 348 GPCRs [5] (setting [24]), 1.09%; at 348 GPCRs [6] (setting [25]) it was -4.3%. Besides, the activation at 100 µM was -0.776% on 348 GPCRs [4] (setting [22]); -14.4% at 348 GPCRs [4] (setting [23]); -0.149% at 348 GPCRs [7] (setting [26]); -3.7% on 348 GPCRs [8] (setting [27]); -1.14% on 348 GPCRs [9] (setting [28]).

On to `CCC(CC)COC(=O)[C@H](C)N[P@](=O)(OC[C@H]1O[C@@](C#N)(c2ccc3c(N)ncnn23)[C@H](O)[C@@H]1O)Oc1ccccc1` [remdesivir], for which the activation at 10 µM was -1.74% on 348 GPCRs [1] (setting [19]); -0.928% on 348 GPCRs [2] (setting [20]); -0.795% on 348 GPCRs [3] (setting [21]); -0.926% at 348 GPCRs [5] (setting [24]); 0.527% on 348 GPCRs [6] (setting [25]). Moreover, the activation at 100 µM at 348 GPCRs [4] (setting [22]) was -0.071%; at 348 GPCRs [4] (setting [23]) it was -1.24%; at 348 GPCRs [7] (setting [26]) it was 1.89%; at 348 GPCRs [8] (setting [27]), 4.77%; at 348 GPCRs [9] (setting [28]), -3.66%.

As for `N#C[C@@]1(c2ccc3c(N)ncnn23)O[C@H](CO)[C@@H](O)[C@H]1O` [GS441524], the activation at 10 µM is -1.17% at 348 GPCRs [1] (setting [10]); -1.52% on 348 GPCRs [2] (setting [11]); -1.43% at 348 GPCRs [3] (setting [12]); 0.29% on 348 GPCRs [5] (setting [29]); 2.73% on 348 GPCRs [6] (setting [15]). Besides, the activation at 100 µM was -1.84% at 348 GPCRs [4] (setting [13]); 0.701% on 348 GPCRs [4] (setting [14]); 0.66% on 348 GPCRs [7] (setting [16]); 2.65% at 348 GPCRs [8] (setting [17]); -3.77% on 348 GPCRs [9] (setting [18]).

Take `CC(C)C(=O)OC[C@H]1O[C@@H](n2ccc(NO)nc2=O)[C@H](O)[C@@H]1O` [molnupiravir]: the activation at 10 µM on 348 GPCRs [1] (setting [10]) is -2.76%; on 348 GPCRs [2] (setting [11]) it was -2.83%; at 348 GPCRs [3] (setting [12]) it was -0.116%; on 348 GPCRs [5] (setting [29]), -0.928%; on 348 GPCRs [6] (setting [15]), -2.66%. For the same compound, the activation at 100 µM at 348 GPCRs [4] (setting [13]) is -2.9%; at 348 GPCRs [4] (setting [14]), -28.1%; at 348 GPCRs [7] (setting [16]), -0.25%; at 348 GPCRs [8] (setting [17]), -1.07%; at 348 GPCRs [9] (setting [18]), -1.05%.
